Laboratory results published in patent US20050124674A1, “Synergistic biocide composition” (priority 1998, published 2005).

What was measured:
Assay in all cases: MIC / synergy test of MIT and IPBC mixtures in Sabouraud maltose broth
Assay type in all cases: cell-based
Saccharomyces cerevisiae = conditions: for MIC at IPBC concentration Qb: IPBC part of the MIC pair; for MIC value: biocide used alone; for Synergy index Qa/QA + Qb/QB: method of Kull et al.; for MIC at MIT concentration Qa: MIT part of the MIC pair
Description: For that purpose, aqueous mixtures with different concentrations of 2-methylisothiazolin-3-one (MIT) and 3-iodo-2-propynyl-N-butylcarbamate (IPBC) were produced and the effects of those mixtures on Saccharomyces cerevisiae were tested.
In addition to the biocide components and water, the aqueous mixtures also contained a nutrient medium, specifically a Sabouraud maltose broth (trade product “Merck No. 10393”). The cell density of Saccharomyces cerevisiae was 10^6 cells/ml. The incubation time was 72 hours at 25° C. Each sample was incubated at 120 r.p.m. on an incubation shaker.
(§1) The calculation of the synergy index is performed according to the method by F. C. Kull et al., Applied Microbiology, vol. 9 (1961), p. 538. The synergy index is calculated here using the following formula: Synergy index SI=Qa/QA+Qb/QB.
(§2) When this formula is used for the biocide system tested here, the variables in the formula have the following meaning: • […]=Concentration of MIT in biocide mixture of MIT and IPBC • QA=Concentration of MIT as the only biocide • Qb=Concentration of IPBC in biocide mixture of MIT and IPBC • QB=Concentration of IPBC as the only biocide
(§3) When the synergy index has a value of less than 1, that means that a synergy of the two biocides exists.
Example 1 was repeated with the change that the incubation time was 96 hours instead of 72 hours.

Candida valida = conditions: 96 hours; for MIC value: biocide used alone; for Synergy index Qa/QA + Qb/QB: method of Kull et al.
Description: as §1, §2, §3
(§4) The test arrangements again included a Sabouraud maltose broth as culture medium. The cell density was 10^6 cells/ml. The incubation time was 96 hours at 25° C. Every sample was incubated at 120 r.p.m. on an incubation shaker.

Aspergillus niger = conditions: 96 hours; for MIC value: biocide used alone; for Synergy index Qa/QA + Qb/QB: method of Kull et al.
Description: as §1, §2, §3, §4

Penicillium funiculosum = conditions: for MIC at IPBC concentration Qb: IPBC part of the MIC pair; for MIC value: biocide used alone; for Synergy index Qa/QA + Qb/QB: method of Kull et al.; for MIC at MIT concentration Qa: MIT part of the MIC pair
Description: as §1, §2, §3
The test arrangement again included a Sabouraud maltose broth as culture medium. The cell density was 10^6 germs/ml. The incubation time was 72 hours at 25° C. Every sample was incubated at 120 r.p.m. on an incubation shaker.
Example 5 was repeated with the change that the incubation time was 96 hours instead of 72 hours.

| Structure (SMILES) | MIC value (Saccharomyces cerevisiae; 72 hours) | Synergy index Qa/QA + Qb/QB (Saccharomyces cerevisiae; 72 hours) | MIC value (Saccharomyces cerevisiae; 96 hours) | Synergy index Qa/QA + Qb/QB (Saccharomyces cerevisiae; 96 hours) | MIC value (Candida valida) | Synergy index Qa/QA + Qb/QB (Candida valida) | MIC value (Aspergillus niger) | Synergy index Qa/QA + Qb/QB (Aspergillus niger) | MIC value (Penicillium funiculosum; 72 hours) | Synergy index Qa/QA + Qb/QB (Penicillium funiculosum; 72 hours) | MIC value (Penicillium funiculosum; 96 hours) | Synergy index Qa/QA + Qb/QB (Penicillium funiculosum; 96 hours) | also measured |
| --- | --- | --- | --- | --- | --- | --- | --- | --- | --- | --- | --- | --- | --- |
| CCCCNC(=O)OCC#CI [IPBC, 3-iodo-2-propynyl-N-butylcarbamate] | 10 ppm | 1.00 | 10 ppm | 1.00 | 2.5 ppm | 1.00 | 5 ppm | 1.00 | 1.5 ppm | 1.00 | 1.5 ppm | 1.00 | MIC at IPBC concentration Qb (Saccharomyces cerevisiae; 72 hours): 10 ppm; MIC at IPBC concentration Qb (Saccharomyces cerevisiae; 96 hours): 10 ppm; MIC at IPBC concentration Qb (Candida valida; IPBC part of the MIC pair): 2.5 ppm; MIC at IPBC concentration Qb (Aspergillus niger; IPBC part of the MIC pair): 5 ppm; MIC at IPBC concentration Qb (Penicillium funiculosum; 72 hours): 1.5 ppm; MIC at IPBC concentration Qb (Penicillium funiculosum; 96 hours): 1.5 ppm |
| Cn1sccc1=O [MIT, 2-methylisothiazolin-3-one] | 150 ppm | 1.00 | 150 ppm | 1.00 | 75 ppm | 1.00 | 750 ppm | 1.00 | 200 ppm | 1.00 | 200 ppm | 1.00 | MIC at MIT concentration Qa (Saccharomyces cerevisiae; 72 hours): 150 ppm; MIC at MIT concentration Qa (Saccharomyces cerevisiae; 96 hours): 150 ppm; MIC at MIT concentration Qa (Candida valida; MIT part of the MIC pair): 75 ppm; MIC at MIT concentration Qa (Aspergillus niger; MIT part of the MIC pair): 750 ppm; MIC at MIT concentration Qa (Penicillium funiculosum; 72 hours): 200 ppm; MIC at MIT concentration Qa (Penicillium funiculosum; 96 hours): 200 ppm |
